Test results published in US5959109A, “Compounds and methods for increasing endogenous levels of corticotropin-releasing factor” (Neurocrine Biosciences, Inc., priority 1996, dated 1999).

Target: T1, human recombinant CRF-BP (Homo sapiens, UniProt P24387)
T1 construct: made in house
T1 sequence (P24387 25-322): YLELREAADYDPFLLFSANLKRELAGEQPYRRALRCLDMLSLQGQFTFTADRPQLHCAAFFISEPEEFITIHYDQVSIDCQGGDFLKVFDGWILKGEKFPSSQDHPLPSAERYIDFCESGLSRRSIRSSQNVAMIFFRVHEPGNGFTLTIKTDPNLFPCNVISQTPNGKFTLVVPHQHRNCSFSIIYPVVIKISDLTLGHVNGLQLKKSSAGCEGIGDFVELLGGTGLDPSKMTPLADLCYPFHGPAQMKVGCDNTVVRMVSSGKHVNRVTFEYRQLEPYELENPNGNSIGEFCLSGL
Experiment: LIRMA: displacement of 125I-h/rCRF from CRF-BP, Ki
Format: binding
Details: inhibitory binding affinity constant (Ki)
Method: In LIRMA CRF-BP isolated from brain tissue, serum, or cells expressing a recombinant form, is added to wells of a 96-well plate, to small polypropylene microfuge tubes, or to glass borosilicate tubes in a binding buffer (0.02% NP-40 in 50 mM phosphate-buffered saline). ^125 I-h/rCRF (New England Nuclear) and the candidate ligand inhibitor at 10 μM are added and the reaction is incubated for 1 hour at room temperature. An appropriately diluted anti-CRF-BP antibody, such as a rabbit anti-hCRF-BP (Potter et al., Proc. Natl. Acad. Sci. USA 89:4192-4196, 1992) is added to each tube, and after further incubation, bound complexes are precipitated by the further addition of a goat anti-rabbit antibody. The precipitate containing ^125 I-CRF is collected by centrifugation and the amount of radioactivity in the pellet is determined by a gamma counter. If the candidate ligand inhibitor displaces CRF from CRF-BP, the pellets will contain less radioactivity in comparison to controls in which no candidate peptide is added. Maximum inhibition (i.e., 100%) of the binding of ^125 I-h/rCRF to the CRF-BP is defined by the amount of radioactivity left in the pellets after incubation with 10 μM of the CRF-BP peptide ligand h/rCRF (6-33). Thus, the binding potency of the candidate ligand inhibitor will be measured relative to the potency of the standard h/rCRF (6-33).
Thus, a ligand having a Ki of less than that of hCRF will bind more strongly to hCRF-BP than will hCRF itself, and a ligand having a higher value will have a relatively lower binding affinity.
The assay is performed in 600 μl polypropylene microfuge tubes or a 96-well plate. First, 50 μl of a 250 ng/ml of purified recombinant CRF-BP is added to 150 μl of PBS binding buffer (50 mM sodium phosphate, 0.15M NaCl, and 0.02% NP-40). Next, ^125 I-h/r CRF at a final concentration of 200 pM and 50 μl of a 10-100 μM concentration of the ligand inhibitor are added and incubated for 1 hour at room temperature. To the reaction, 50 μl of anti-CRF-BP antibody, 5144, diluted 1:1000 with assay buffer is added to each tube and allowed to bind for a further 1 hour at room temperature. The total volume in all tubes is adjusted to 300 μl with assay buffer. Bound complexes are precipitated by the addition of 200 μl of preprecipitated goat anti-rabbit (GAR) second antibody at 1:20 in 1% normal rabbit serum, 4% PEG, 50 mM sodium phosphate, 0.1% sodium azide, followed by incubation for 1 hour at room temperature. The antibody-bound ^125 I-CRF precipitate is then collected by centrifugation (3000×g) at 4° C. for 20 minutes in a Beckman GS-15R centrifuge. Using a Beckman Biomer 1000 robotic workstation, the tubes are aspirated and washed once with 600 μl of PBS plus 0.02% NP-40. Tubes containing the pellets are then transferred to 12×74 mm counting tubes and counted in a gamma counter.
Inhibitory binding affinity constant (Ki) values are determined using the method of Munson et al., Anal. Biochem. 107:220, 1980.

Row | Molecule | Ki [µM]
1 | CCn1c(O)c(C=NC(=S)Nc2c(Cl)cc(Cl)cc2Cl)c(=O)n(CC)c1=S [Compound 49] | < 0.1
2 | O=c1c(C=NC(=S)Nc2ccc(Cl)cc2)c(O)n(Cc2ccccc2)c(=S)n1Cc1ccccc1 [Compound 53] | < 0.1
3 | CCCn1c(O)c(C=NC(=S)Nc2ccc(Cl)cc2)c(=O)n(CCC)c1=S [Compound 54] | < 0.1
4 | CCn1c(O)c(C=Nc2nc3ccccc3[nH]2)c(=O)n(CC)c1=S [Compound 58] | < 0.05
5 | CCn1c(O)c(C=Nc2nc3c(C)cccc3s2)c(=O)n(CC)c1=S [Compound 72] | < 0.1
6 | CCn1c(=O)c(C=Nc2nc3c(OC)cccc3s2)c(O)n(CCc2ccccc2)c1=S [Compound 73-1] | < 0.1
7 | CCn1c(O)c(C=Nc2nc3c(OC)cccc3s2)c(=O)n(CC)c1=S [Compound 73] | < 0.05
8 | CCn1c(O)c(C=Nc2nc3ccc(Cl)cc3s2)c(=O)n(CC)c1=S [Compound 74] | < 0.1
9 | CCn1c(=O)c(C=Nc2nc3ccc(C)cc3s2)c(O)n(CCc2ccccc2)c1=S [Compound 75-1] | < 0.1
10 | CCn1c(O)c(C=Nc2nc3ccc(C)cc3s2)c(=O)n(CC)c1=S [Compound 75] | < 0.05
11 | CCn1c(=O)c(C=Nc2nc3ccc(OC)cc3s2)c(O)n(CCc2ccccc2)c1=S [Compound 76-1] | < 0.1
12 | CCn1c(O)c(C=Nc2nc3ccc(OC)cc3s2)c(=O)n(CC)c1=S [Compound 76] | < 0.05
13 | CCn1c(O)c(C=Nc2nc3ccc([N+](=O)[O-])cc3s2)c(=O)n(CC)c1=S [Compound 79] | < 0.1
14 | CCn1c(O)c(C=Nc2nc3c(C(F)(F)F)cccc3s2)c(=O)n(CC)c1=S [Compound 80] | < 0.1
15 | CCn1c(O)c(C=Nc2nc3cc([N+](=O)[O-])ccc3s2)c(=O)n(CC)c1=S [Compound 82] | < 0.05
16 | CCn1c(=O)c(C=Nc2nc3cc(C)c(C)cc3[nH]2)c(O)n(CCc2ccccc2)c1=S [Compound 85-1] | < 0.05
17 | CCn1c(O)c(C=Nc2nc3cc(C)c(C)cc3[nH]2)c(=O)n(CC)c1=S [Compound 85] | < 0.05
18 | CCn1c(O)c(C=Nc2nc3cc(C)ccc3[nH]2)c(=O)n(CC)c1=S [Compound 86] | < 0.05
19 | CCn1c(=O)c(C=Nc2nc3c(Cl)cccc3s2)c(O)n(CCc2ccccc2)c1=S [Compound 95-1] | < 0.1
20 | O=c1c(C=Nc2nc3ccccc3[nH]2)c(O)n(CCc2cccs2)c(=S)n1CCc1cccs1 [Compound 97] | < 0.05

Row | Molecule | Ki [µM]
21 | CCCn1c(O)c(C=Nc2nnc(C)s2)c(=O)n(CCC)c1=S [Compound 103] | < 0.1
22 | CCn1c(=O)c(C=Nc2nnc(C(F)(F)F)s2)c(O)n(CCc2ccccc2)c1=S [Compound 104-1] | < 0.1
23 | CCn1c(O)c(C=Nc2nnc(C(F)(F)F)s2)c(=O)n(CC)c1=S [Compound 104] | < 0.1
24 | O=c1c(C=Nc2nnc(C(F)(F)F)s2)c(O)n(Cc2ccccc2)c(=S)n1Cc1ccccc1 [Compound 105] | < 0.1
25 | CCCn1c(O)c(C=Nc2nnc(C(F)(F)F)s2)c(=O)n(CCC)c1=S [Compound 106] | < 0.1
26 | CCn1c(=O)c(C=Nc2nncs2)c(O)n(CCc2ccccc2)c1=S [Compound 110-1] | < 0.05
27 | O=c1c(C=Nc2nncs2)c(O)n(Cc2ccccc2)c(=S)n1Cc1ccccc1 [Compound 111] | < 0.05
28 | CCSc1nnc(N=Cc2c(O)n(Cc3ccccc3)c(=S)n(Cc3ccccc3)c2=O)s1 [Compound 115] | < 0.1
29 | CCCn1c(O)c(C=Nc2nnc(SCC)s2)c(=O)n(CCC)c1=S [Compound 116] | < 0.1
30 | CCn1c(=O)c(C=Nc2ncc(C)s2)c(O)n(CCc2ccccc2)c1=S [Compound 117-1] | < 0.1
31 | Cc1cnc(N=Cc2c(O)n(Cc3ccccc3)c(=S)n(Cc3ccccc3)c2=O)s1 [Compound 118] | < 0.05
32 | CCCCCCCCCCCCCCCCSc1nnc(N=Cc2c(O)n(Cc3ccccc3)c(=S)n(Cc3ccccc3)c2=O)s1 [Compound 121] | < 0.05
33 | CCn1c(=O)c(C=Nc2nc(N(Cc3ccccc3)c3ccccc3)ns2)c(O)n(CCc2ccccc2)c1=S [Compound 131-1] | < 0.05
34 | O=c1c(C=Nc2nc(N(Cc3ccccc3)c3ccccc3)ns2)c(O)n(Cc2ccccc2)c(=S)n1Cc1ccccc1 [Compound 132] | < 0.05
35 | CCCn1c(O)c(C=Nc2nc(N(Cc3ccccc3)c3ccccc3)ns2)c(=O)n(CCC)c1=S [Compound 133] | < 0.05
36 | O=c1c(C=Nc2ncc(Br)s2)c(O)n(Cc2ccccc2)c(=S)n1Cc1ccccc1 [Compound 140] | < 0.1
37 | CCCn1c(O)c(C=Nc2nnc(CC)s2)c(=O)n(CCC)c1=S [Compound 150] | < 0.1
38 | Cc1cnc(N=Cc2c(O)n(Cc3cccs3)c(=S)n(Cc3cccs3)c2=O)s1 [Compound 157] | < 0.05
39 | CCCn1c(O)c(C=Nc2nc3c(s2)CCC3)c(=O)n(CCC)c1=S [Compound 172] | < 0.05

Same assay, conditions: read-out: inhibitory binding affinity constant (Ki)

Row | Molecule | Ki [µM]
40 | O=c1oc2ccc(Cl)cc2c(O)c1C=NC(=S)Nc1ccc(Cl)cc1 [Compound 1, 3-(p-chlorophenyl)thioureidomethylene-4-oxo-6-chloro-coumarin] | < 0.05
41 | O=c1oc2ccc(Cl)cc2c(O)c1C=NC(=S)Nc1ccc(Cl)c(Cl)c1 [Compound 2] | < 0.05
42 | O=c1oc2ccc(Cl)cc2c(O)c1C=NC(=S)Nc1ccc(C(F)(F)F)cc1 [Compound 6] | < 0.05
43 | O=c1oc2ccc(Cl)cc2c(O)c1C=NC(=S)Nc1c(Cl)cc(Cl)cc1Cl [Compound 7] | < 0.05
44 | O=c1oc2ccc(Cl)cc2c(O)c1C=NC(=S)Nc1ccc(C2CCCCC2)cc1 [Compound 10] | < 0.05
45 | O=c1oc2ccc(Cl)cc2c(O)c1C=NC(=S)Nc1ccc(-c2ccccc2)cc1 [Compound 19] | < 0.05
46 | O=c1oc2ccc(Cl)cc2c(O)c1C=NC(=S)Nc1ccccc1-c1ccccc1 [Compound 20] | < 0.05
47 | O=c1oc2ccc3ccccc3c2c(O)c1C=NC(=S)Nc1ccc(Cl)cc1 [Compound 29] | < 0.1
48 | O=c1oc2c(Cl)cccc2c(O)c1C=NC(=S)Nc1ccc(Cl)cc1 [Compound 31] | < 0.05
49 | O=c1oc2c(Cl)cc(Cl)cc2c(O)c1C=NC(=S)Nc1ccc(Cl)cc1 [Compound 32] | < 0.05
50 | O=c1oc2ccc(Cl)cc2c(O)c1C=Nc1nc2c(Cl)cccc2s1 [Compound 36] | < 0.05
51 | COc1cccc2sc(N=Cc3c(O)c4cc(Cl)ccc4oc3=O)nc12 [Compound 40] | < 0.1
52 | O=c1oc2cc(Cl)ccc2c(O)c1C=Nc1nc2c(Cl)cccc2s1 [Compound 44] | < 0.05
53 | O=c1oc2cc(Cl)ccc2c(O)c1C=Nc1nc2ccc(Cl)cc2s1 [Compound 45] | < 0.05
54 | CCn1c(=O)c(C=Nc2nc3ccccc3[nH]2)c(O)n(CCc2ccccc2)c1=S [Compound 58-1] | < 0.1

Test system: human CRF-BP
Experiment: not given
Details: cited from earlier work

Row | Molecule | affinity for CRF-BP
55 | oCRF: the standard oCRF, which is arbitrarily considered as 1.0 | low affinity
56 | sauvagine | bind CRF-BP with high affinity

Test system: not given
Experiment: not given
Details: human, in vivo; cited from earlier work

Row | Molecule | memory improvement in Alzheimer's patients | side effects
57 | Nc1c2c(nc3ccccc13)CCCC2 [Tacrine] | only marginal memory improvement | elevating liver enzymes
58 | CC(NC(C)(C)C)C(=O)c1cccc(Cl)c1 (stereo not drawn) [bupropion] | – | convulsions
59 | CNCCC(Oc1ccc(C(F)(F)F)cc1)c1ccccc1 (stereo not drawn) [fluoxetine] | – | suicidality
